Measured values: ChEMBL document CHEMBL3507680, “University of Dundee, Gates Library screen for HepG2 cell viability”

Test: Human HepG2 cell viability assay in 384 well format
Assay type: toxicity, cell-based
Parameters: dose 125 nL, time 70.5 hour; concentration not given beside the values
Conditions: HepG2 cells, read-out: Inhibition

Row | Compound | cytotoxicity at 70.5 h
1 | N#Cc1ccccc1OCCN1CCCC(c2noc(C3CC3)n2)C1 (stereo unspecified) | 3.57%
2 | CNC(=O)C1Cn2ccnc2C2(CCN(CCF)CC2)O1 (stereo unspecified) | -13.9%
3 | CCOc1ccc(NC(=O)c2cc(C)c(C)o2)cc1CO | 26.7%
4 | Cc1noc(C)c1CN1CCOC2(CCCN(c3nccs3)C2)C1 (stereo unspecified) | 29.8%
5 | NC(=O)COc1cccc(C(=O)NCc2ccc(Cl)s2)c1 | -11.8%
6 | Cc1ccccc1C(=O)N1CCC2(CCCN2CCN(C)C)CC1 | -9.86%
7 | CSc1nnc(N(CCC#N)CCC#N)s1 | 6.15%
8 | CS(=O)(=O)c1ccc(NC(=O)NCc2ccc3c(c2)CCC3)cn1 | -2.56%
9 | CC(C)c1cc(N2CC[C@H](F)C2)n2nccc2n1 | 2.77%
10 | CN(Cc1ccc(F)cc1)C(=O)NCC1(N2CCOCC2)CCSC1 (stereo unspecified) | 11.7%
11 | CC(=O)Nc1nc(C2CCN(C(=O)c3cccnc3)CC2)cs1 | -15.5%
12 | COc1ccc2c(c1)CC(NCc1cccc(NC(C)=O)c1)CC2 (stereo unspecified) | -5.85%
13 | CC(C)=CCN1CCOC(Cn2cccn2)C1 (stereo unspecified) | 1.11%
14 | CC(C)(NC(=O)CCc1ccco1)c1ccc2c(c1)OCCO2 | -2.91%
15 | COCCCNc1c(-c2ccc(C)cc2)c(=O)c1=O | -6.65%
16 | Cc1cccc(CN2CCCC(O)(CNCCc3c[nH]cn3)C2=O)c1 (stereo unspecified) | 9.08%
17 | Cc1cnccc1NCCn1ccnc1C1CCOC1 (stereo unspecified) | -3.31%
18 | NC(=O)Cn1c(SCc2noc(-c3ccsc3)n2)nnc1C1CC1 | -1.96%
19 | Cn1c(Cn2cccn2)nnc1C1CCCN(c2ccncc2F)C1 (stereo unspecified) | 3.69%
20 | CCCc1nn(Cc2csc(C(C)C)n2)c(=O)o1 | -7.07%
21 | CCn1cnnc1CCNS(=O)(=O)N1CCCC1c1ccco1 (stereo unspecified) | -9.13%
22 | O=C(COc1cccc(F)c1)N1C[C@@H](O)[C@H](N2CCOCC2)C1 | -5.2%
23 | CC(=O)N1CCCN(c2nccc(-c3c(C)nn(C)c3C)n2)CC1 | -3.87%
24 | Cc1ccccc1Cc1cnc(NC(=O)C2CNC(=O)N2)s1 (stereo unspecified) | 2.49%

Row | Compound | cytotoxicity at 70.5 h
25 | Cc1cnn(CC2CCCN2Cc2noc(-c3ccccc3)n2)c1 (stereo unspecified) | -9.63%
26 | O=C(c1ccco1)N1CCC2(CCCN(c3ncccn3)C2)C1 (stereo unspecified) | 11%
27 | COc1ccccc1-c1ncc(CN2CCC3(CCNCC3)CC2)cn1 | -7.68%
28 | c1nc(CNC2CCOCC2)c2n1CCCN(CC1CC1)C2 | -3.82%
29 | CC(C)(C)OC(=O)NCC1CCCCN1Cc1ccccn1 (stereo unspecified) | 1.05%
30 | Cc1nc(N(C)C)nc(NCCc2cnccn2)c1C | -1.68%
31 | O=C(c1cnc(OCC(F)(F)F)c(Cl)c1)N1CCc2ccc(O)cc2C1 | -18.4%
32 | CCN1CCC(NC(=O)CN2CCCC(NS(C)(=O)=O)C2)CC1 (stereo unspecified) | -10.1%
33 | CN(C)C(=O)c1cn[nH]c1C1CCCN1Cc1cncn1C (stereo unspecified) | -0.0963%
34 | CC(=O)N(Cc1c(F)cccc1F)C1CCCC1 | -6.67%
35 | NC(=O)c1ccc(OCCCN2C[C@H](C3CC3)[C@@H](N)C2)cc1 | -5.8%
36 | CCCN(C(=O)COC)c1nc2c(s1)CCc1c-2cnn1C | 3.43%
37 | O=C(NC1CC1)c1cc(Cl)ccc1-n1cnnn1 | -6.19%
38 | COc1ccccc1CN1CCC2(CCC(C(=O)N(C)C)O2)CC1 (stereo unspecified) | -8.03%
39 | c1coc(-c2nc3c(c(N4CCCN5CCC[C@H]5C4)n2)CCNCC3)c1 | -2.19%
40 | Cc1nnc(SC2CCc3ccccc3NC2=O)n1C (stereo unspecified) | -23%
41 | CN1C(=O)CCC12CCN(Cc1ccco1)CC2 | -12.2%
42 | Cc1cc(C2CCC2)nc(NCC(C)(C)CO)n1 | -2.23%
43 | O=S(=O)(NCCc1ccccc1C(F)(F)F)N1CCOCC1 | 23.1%
44 | NC(=O)Cn1ccc(NC(=O)C2(c3cccc(F)c3)CCC2)n1 | 19.5%
45 | CCc1nnsc1C(=O)NCc1nnc2n1CCC2 | -2.79%
46 | COCCC(=O)NC[C@H]1CC[C@H](C(c2ccccn2)N(C)C)CC1 (stereo partly specified) | -2.06%
47 | CCC(NC(=O)C(C)(C)C)c1ccccc1C (stereo unspecified) | 25.3%
48 | CC(=O)N1N=C(COc2ccc(C)cc2)OC1c1ccc(N(C)C)cc1 (stereo unspecified) | -6.08%

Row | Compound | cytotoxicity at 70.5 h
49 | CN(Cc1cc2cc(F)ccc2[nH]1)C(=O)C1CC(=O)N(C2CC2)C1 (stereo unspecified) | -2.65%
50 | Cc1cccc(NC(=O)N2CCC(CO)(Nc3ccccc3)CC2)c1 | -5.03%
51 | Cc1ccc(Oc2nccnc2C2CCN(C(=O)C(C)(C)N)CC2)cc1 | -6.45%
52 | CNC(=O)CN1C(=O)CCC12CCCN(Cc1ccccn1)C2 (stereo unspecified) | 2.52%
53 | Cc1nc(C2CCN(S(=O)(=O)c3ccc4c(c3)CCO4)CC2)n[nH]1 | 0.662%
54 | N#CCc1ccc(OCC(=O)NS(=O)(=O)c2ccc(Br)s2)cc1 | 4.36%
55 | CNC(=O)NC(=O)CCSc1ccccc1Cl | -1.01%
56 | Cc1ccc(-c2cnnc(N3CCCC3c3nccs3)n2)o1 (stereo unspecified) | -7.57%
57 | COc1ccc(C)cc1C1(CNc2cncc(Cl)n2)CCOCC1 | -8.23%
58 | COc1cnc(N2CCCN(Cc3ccc(F)cc3)CC2)nc1 | 4.55%
59 | CCC(=O)N1CCC(c2nc3c(c(NC)n2)CN(C)CC3)C1 (stereo unspecified) | -9.93%
60 | CCOCC(=O)N1C[C@H]2CC[C@@H]1CN(C(=O)c1ccncc1)C2 | -1.67%
61 | CC(C)Oc1cc(N2CC[C@H](CO)[C@@H](O)C2)nc(N)n1 | -8.74%
62 | CN(c1ccccc1)c1ccc(CC2CCCN(CCO)C2)nn1 (stereo unspecified) | 30.2%
63 | CC(Nc1cnn(C)c(=O)c1Cl)c1ccc(F)cc1 (stereo unspecified) | -13.1%
64 | CC1(C)CNC(=O)CN(C(=O)Cc2ccccc2)C1 | 0.101%
65 | O=C(Cc1ccccc1F)NCC1CCN(CCN2CCOCC2)C1 (stereo unspecified) | 2.01%
66 | O=C(NCc1ccco1)c1cccc(C(=O)NCc2ccco2)n1 | -20.3%
67 | O=C(CN1CCCNC1=O)N(Cc1ccccc1)CC(F)F | 1.59%
68 | O=c1c(S(=O)(=O)N2CCCC2)cccn1Cc1c(F)cccc1Cl | -6.76%
69 | CC(C)(C)NC(=O)NC(=O)CN1C=Nc2ccccc2S1(=O)=O | -8.6%
70 | COc1ccc(OC)c(CN(C)c2ncc(S(N)(=O)=O)s2)c1 | -10.9%
71 | Cn1cc(CN2CCc3ncn(C)c3C2COCc2ccccc2)cn1 (stereo unspecified) | 2.01%
72 | O=C1C(Sc2nc(=O)ccn2C2CC2)CCN1c1ccccc1 (stereo unspecified) | 0.555%

Row | Compound | cytotoxicity at 70.5 h
73 | CC(CC#N)N(C)Cc1ccc(F)cc1C#N (stereo unspecified) | 11.9%
74 | CN(C)c1cccc(C(=O)Nc2cnn(CC(N)=O)c2)c1 | -16.4%
75 | CCc1ccccc1NC(=O)C1CN(C(C)=O)C1 | 11.2%
76 | O=C(O)c1cc(C2CC2)nc2c(Cl)cnn12 | -7.04%
77 | CC(C)C(=O)N1CCC2(CC1)NC(=O)[C@H]1CN(C(=O)N(C)C)C[C@H]12 | -11.8%
78 | CCCc1nc(C)c(C(=O)NC2CCN(C3CC3)C2)s1 (stereo unspecified) | 14.1%
79 | CC(C)=CCN1CC2(CCN(C(=O)CCn3ccnc3C)CC2)CC1=O | 0.368%
80 | c1ccc(COc2ccccc2NC2CCOCC2)nc1 | -4.09%
81 | CCc1nccn1-c1nccnc1C1CCN(C(=O)COC)CC1 | 14.8%
82 | CNc1nc(C(=O)N2C[C@H]3CC[C@@H]2CN(S(C)(=O)=O)C3)cs1 | 12%
83 | O=C(O)C1(Cc2cccc(-c3ccc(F)c(F)c3)c2)CCOCC1 | -19.2%
84 | CNc1cc2c(nn1)CCN(C(=O)c1coc(Br)c1)C2 | 17.6%
85 | O=C(C1CCC2(CCN(CC3CCOCC3)CC2)O1)N1CCCC1 (stereo unspecified) | 4.83%
86 | COCc1nc(C(=O)N2CCCCC2Cn2cccn2)cs1 (stereo unspecified) | -7.2%
87 | Cc1ncccc1OC1(C(=O)NCCCN2CCOCC2)CCNCC1 | -11.7%
88 | Cc1cc(C)cc(C(C)NC(=O)c2ccc(CS(C)(=O)=O)o2)c1 (stereo unspecified) | -3.42%
89 | Cc1ccc(-c2nc(CC(=O)N3CCCC(NC(=O)C(C)C)C3)cs2)o1 (stereo unspecified) | -4.05%
90 | Cc1ccccc1-c1cccc(CN2C[C@H]3C(=O)NC[C@@]3(C(=O)O)C2)c1 | 12.4%
91 | Cc1ccc(CN(Cc2nc3c(cnn3C)c(=O)[nH]2)C2CC2)o1 | -5.9%
92 | c1ccc(CN2C[C@H]3CCC[C@@]3(COCC3CCOCC3)C2)nc1 | 0.897%
93 | COCc1ccc(C(=O)NCCCNc2ccc(C(F)(F)F)cn2)cc1 | -11.2%
94 | COCCCNC(=O)Nc1c(C)cccc1C(C)C | -9.85%
95 | CC(C)c1nn(C)c(N(C)C)c1CNC1CCN(CC2CC2)CC1 | 0.338%
96 | CCN(C)c1ncnc2c1CCN(C(=O)COC)CC2 | -10.8%

Row | Compound | cytotoxicity at 70.5 h
97 | O=C(NCc1cccnc1)[C@@H]1C[C@H]2[C@H](CCN2c2ncc(F)cn2)O1 | -4.83%
98 | O=C(CN1CCCC1Cn1cncn1)NC(C1CC1)C1CC1 (stereo unspecified) | -4.54%
99 | CC(C)[C@H](CO)Nc1nccc(-c2c[nH]nc2-c2ccncc2)n1 | -3.12%
100 | COc1ccc(N2Cc3nc(=O)[nH]n3C2=O)cc1 | 6.34%
101 | CN(Cc1ccco1)C(=O)CN1CCCCC1Cn1cncn1 (stereo unspecified) | -8.72%
102 | CCN(Cc1cccc2c1OCO2)C(=O)NCc1ccccn1 | 13.5%
103 | Cc1nc(C)n(CC2CCCCN2Cc2nnc(-c3ccco3)o2)n1 (stereo unspecified) | -6.54%
104 | CS(=O)(=O)N1CCC(Oc2ccc(C(=O)NC3CCOC3)cc2Cl)CC1 (stereo unspecified) | -7.64%
105 | O=C(Cc1ccc2c(c1)OCO2)N[C@@H]1CCNC[C@H]1O | -3.71%
106 | CCNC(c1ccc(F)cc1)c1cccnc1 (stereo unspecified) | -19.7%
107 | O=C(Nc1ccnc(OC2CCOC2)c1)c1cccs1 (stereo unspecified) | -4.23%
108 | O=S(=O)(NCC1(O)CCOc2ccccc21)c1ccccc1Br (stereo unspecified) | -0.163%
109 | CNC(=O)Nc1cnc2cc(Cl)ccc2c1O | 10%
110 | CCCn1cnc(S(=O)(=O)Nc2cccnc2-n2cccn2)c1 | 19.8%
111 | Cc1nc(N2Cc3cnn(Cc4ccc(F)cc4)c3C2)no1 | 13.6%
112 | Cn1cnc(S(=O)(=O)N2CC3(CCN(Cc4ccncc4)C3)C2)c1 | -6.66%
113 | c1ccc(C2Cn3ccnc3CN2Cc2ncc[nH]2)cc1 (stereo unspecified) | -1.58%
114 | Cc1cc(N2CCC(O)CC2)nc(C2CCCN2C)n1 (stereo unspecified) | -5.82%
115 | Cc1nccc(N2CC[C@@H]3[C@@H](CCC(=O)N3CCc3ccccc3)C2)n1 | -6.49%
116 | CC(C)CN1C[C@H](COCc2ccccc2)Oc2ncccc2C1=O | 23.1%
